Assay results reported in US20080188483A1, “Compounds and Compositions as Protein Kinase Inhibitors” (IRM LLC, priority 2006, published 2008).
pIC50: −log10 of the molar value.

Experiments:
purified FGFR3 (Upstate) = molecular target: T1, purified FGFR3 (Upstate) (Homo sapiens, UniProt P22607); test: FGFR3 enzymatic assay (HTRF); type: biochemical
T1 construct: purchased Upstate
Experimental: Kinase activity assay with purified FGFR3 (Upstate) is carried out in a final volume of 10 μL containing 0.25 μg/mL of enzyme in kinase buffer (30 mM Tris-HCl pH7.5, 15 mM MgCl2, 4.5 mM MnCl2, 15 μM Na3VO4 and 50 μg/mL BSA), and substrates (5 μg/mL biotin-poly-EY(Glu, Tyr) (CIS-US, Inc.) and 3 μM ATP). Two solutions are made: the first solution of 5 μl contains the FGFR3 enzyme in kinase buffer was first dispensed into 384-format ProxiPlate® (Perkin-Elmer) followed by adding 50 nL of compounds dissolved in DMSO, then 5 μl of second solution contains the substrate (poly-EY) and ATP in kinase buffer was added to each wells. The reactions are incubated at room temperature for one hour, stopped by adding 10 μL of HTRF detection mixture, which contains 30 mM Tris-HCl pH7.5, 0.5 M KF, 50 mM ETDA, 0.2 mg/mL BSA, 15 μg/mL streptavidin-XL665 (CIS-US, Inc.) and 150 ng/mL cryptate conjugated anti-phosphotyrosine antibody (CIS-US, Inc.). After one hour of room temperature incubation to allow for streptavidin-biotin interaction, time resolved florescent signals are read on Analyst GT (Molecular Devices Corp.). IC50 values are calculated by linear regression analysis of the percentage inhibition of each compound at 12 concentrations (1:3 dilution from 50 μM to 0.28 nM).

[1] = molecular target: T2, FGFR3 (Ba/F3-TEL-FGFR3 cells) (Homo sapiens, UniProt P22607); test: FGFR3 cellular assay (Ba/F3-TEL-FGFR3 proliferation); type: cell-based
T2 construct: expressed in transfected cells; host or cells: Ba/F3; the other entry of the earlier key: ETV6 (P41212, Transcription factor ETV6)
T2 sequence (P22607 472-761 limits assumed): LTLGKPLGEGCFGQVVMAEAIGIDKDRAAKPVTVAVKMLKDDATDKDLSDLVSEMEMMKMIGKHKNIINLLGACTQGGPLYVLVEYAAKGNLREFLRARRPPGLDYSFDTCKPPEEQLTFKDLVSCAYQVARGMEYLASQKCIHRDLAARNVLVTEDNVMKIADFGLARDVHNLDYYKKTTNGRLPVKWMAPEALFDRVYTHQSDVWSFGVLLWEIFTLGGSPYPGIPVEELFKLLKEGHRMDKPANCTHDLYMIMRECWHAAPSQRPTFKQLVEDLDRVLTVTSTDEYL
Experimental: Compounds of the invention are tested for their ability to inhibit transformed Ba/F3-TEL-FGFR3 cells proliferation, which is depended on FGFR3 cellular kinase activity. Ba/F3-TEL-FGFR3 are cultured up to 800,000 cells/mL in suspension, with RPMI 1640 supplemented with 10% fetal bovine serum as the culture medium. Cells are dispensed into 384-well format plate at 5000 cell/well in 50 μL culture medium. Compounds of the invention are dissolved and diluted in dimethylsulfoxide (DMSO). Twelve points 1:3 serial dilutions are made into DMSO to create concentrations gradient ranging typically from 10 mM to 0.05 μM. Cells are added with 50 nL of diluted compounds and incubated for 48 hours in cell culture incubator. AlamarBlue® (TREK Diagnostic Systems), which can be used to monitor the reducing environment created by proliferating cells, are added to cells at final concentration of 10%. After additional four hours of incubation in a 37° C. cell culture incubator, fluorescence signals from reduced AlamarBlue® (Excitation at 530 nm, Emission at 580 nm) are quantified on Analyst GT (Molecular Devices Corp.). IC50 values are calculated by linear regression analysis of the percentage inhibition of each compound at 12 concentrations.

T1 sequence (P22607 23-806): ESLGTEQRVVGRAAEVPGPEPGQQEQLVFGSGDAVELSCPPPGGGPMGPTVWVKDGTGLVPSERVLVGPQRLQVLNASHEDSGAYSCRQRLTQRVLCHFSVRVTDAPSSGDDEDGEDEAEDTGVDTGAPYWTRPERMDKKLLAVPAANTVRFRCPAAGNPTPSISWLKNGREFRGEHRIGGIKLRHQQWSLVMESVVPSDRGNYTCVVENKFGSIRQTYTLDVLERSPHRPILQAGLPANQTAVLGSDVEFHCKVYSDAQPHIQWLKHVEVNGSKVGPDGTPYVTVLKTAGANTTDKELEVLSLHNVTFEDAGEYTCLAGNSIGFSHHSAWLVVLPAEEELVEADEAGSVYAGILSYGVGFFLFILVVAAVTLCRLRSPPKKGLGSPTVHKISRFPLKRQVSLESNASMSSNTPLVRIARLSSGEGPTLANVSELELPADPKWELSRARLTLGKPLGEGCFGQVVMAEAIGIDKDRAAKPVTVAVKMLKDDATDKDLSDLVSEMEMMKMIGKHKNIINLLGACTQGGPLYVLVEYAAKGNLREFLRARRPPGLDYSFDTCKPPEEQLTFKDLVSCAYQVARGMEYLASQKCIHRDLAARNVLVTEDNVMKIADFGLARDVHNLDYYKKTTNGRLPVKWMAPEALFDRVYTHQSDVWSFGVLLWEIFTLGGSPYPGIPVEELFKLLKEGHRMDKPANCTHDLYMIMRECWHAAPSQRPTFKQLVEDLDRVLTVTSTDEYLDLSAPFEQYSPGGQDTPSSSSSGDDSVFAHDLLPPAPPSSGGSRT

In the case of `CCN1CCN(Cc2ccc(NC(=O)c3cc(Nc4nccn4-c4ncnc5[nH]ccc45)cc(OC)c3)cc2C(F)(F)F)CC1` [Compound 9, N-[4-(4-ethyl-piperazin-1-ylmethyl)-3-trifluoromethyl-phenyl]-3-methoxy-5-[1-(7H-pyrrolo[2,3-d]pyrimidin-4-yl)-1H-imidazol-2-ylamino]-benzamide], the pIC50 (purified FGFR3 (Upstate)) was 8.40 and the pIC50 [1] was 7.40.
